US12098148B2, “Therapeutic compounds” (C4X Discovery Limited, priority 2018, dated 2024)
pEC50, pIC50: −log10 of the molar value.

How the values were obtained:
[1] = target: human KEAP1 (N-term, residues 321-609) (Homo sapiens, UniProt Q14145); experiment: biochemical;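 further: fluorescence polarization competition assay of Kelch domain binding to NRF2, 12-point 1:3 dilution series from 10 µM, read after 1 h at room temperature, floor 10 nM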
Method: Biological Assays KEAP1 Kelch Fluorescence Polarization (FP) Assay Method
Inhibition of the Kelch domain-NRF2 interaction was determined using a fluorescence polarization-based competition assay in a black 384-well microplate. Compounds were tested at a starting concentration of 10 μM serially diluted 1:3 to generate a 12-point dose response curve on the Biomek FX robot.
After 1 h at room temperature, fluorescence polarization (excitation 470 nm/emission 530 nm) was measured using an Envision plate reader. IC50 values were determined by fitting the data to a four parameter logistic fit using XLfit or XE Runner within ActivityBase.

[2] = system: NQO1 mRNA in BEAS-2B cells; experiment: Beas2B NQO1 mRNA cell based assay; design: species or system human; details: Homo sapiens, BEAS-2B, 24 h, 24 h compound treatment, increase in NQO1 mRNA vs vehicle (0.1% DMSO), read-out: EC50
Procedure, shortened: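 BEAS-2B human bronchial epithelial cells exposed to compound for 24 h at 37 °C, 5% CO2. NQO1 mRNA measured by one-step TaqMan RT-qPCR on unpurified lysates, normalized to β-actin; relative expression by ΔΔCT method.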

human KEAP1 (N-term, residues 321-609), sequence (Q14145 321-609): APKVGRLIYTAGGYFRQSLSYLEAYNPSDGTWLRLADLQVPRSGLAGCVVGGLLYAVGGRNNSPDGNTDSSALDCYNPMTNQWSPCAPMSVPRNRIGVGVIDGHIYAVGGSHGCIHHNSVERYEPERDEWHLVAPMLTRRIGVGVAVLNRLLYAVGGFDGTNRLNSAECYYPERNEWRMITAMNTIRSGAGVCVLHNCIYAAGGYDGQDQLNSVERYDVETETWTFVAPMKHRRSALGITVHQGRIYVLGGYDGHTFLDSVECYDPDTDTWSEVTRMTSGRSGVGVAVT

Question: With `C[C@@H]1CC(=O)N(C[C@@H]2c3c(OCc4nnn(C)c4C(F)F)ccc(Cl)c3CCN2C(=O)[C@@H]2CCC[C@]2(C)C(=O)O)C1` [Example 109, (1S,2R)-2-((S)-5-Chloro-8-((5-(difluoromethyl)-1-methyl-1H-1,2,3-triazol-4-yl)methoxy)-1-(((R)-4-methyl-2-oxopyrrolidin-1-yl)methyl)-1,2,3,4-tetrahydroisoquinoline-2-carbonyl)-1-methylcyclopentane-1-carboxylic acid] as the compound, how does the pIC50 [1] read?
Answer: The pIC50 was 8.01.

Question: What about the pEC50 [2] of the same compound?
Answer: Its pEC50 is 8.13.

Question: Which results are given for `Cn1nnc(COc2ccc(Cl)c3c2[C@@H](CN2CC4(CC4)CC2=O)N(C(=O)[C@@H]2CCC[C@]2(C)C(=O)O)CC3)c1C(F)F` [Example 110, (1S,2R)-2-((S)-5-Chloro-8-((5-(difluoromethyl)-1-methyl-1H-1,2,3-triazol-4-yl)methoxy)-1-((6-oxo-5-azaspiro[2.4]heptan-5-yl)methyl)-1,2,3,4-tetrahydroisoquinoline-2-carbonyl)-1-methylcyclopentane-1-carboxylic acid]?
Answer: pIC50 [1]: 8.20; pEC50 [2]: 8.89

Question: How did the pIC50 [1] turn out when `C[C@@H]1CC(=O)N(C[C@@H]2c3c(OCc4nnn(C)c4C(F)F)ccc(Cl)c3CCN2C(=O)[C@@H]2CCCC[C@]2(C)C(=O)O)C1` [Example 111, (1S)-2-((S)-5-Chloro-8-((5-(difluoromethyl)-1-methyl-1H-1,2,3-triazol-4-yl)methoxy)-1-1-(((R)-4-methyl-2-oxopyrrolidin-1-yl)methyl)-1,2,3,4-tetrahydroisoquinoline-2-carbonyl)-1-methylcyclohexane-1-carboxylic acid] was run?
Answer: Its pIC50 is 8.21.

Question: What about the pEC50 [2] of the same compound?
Answer: The pEC50 was 8.60.

Question: What does the source list for `C[C@@H]1CCN(C[C@@H]2c3c(OCc4nnn(C)c4C(F)F)ccc(Cl)c3CCN2C(=O)[C@@H]2CCCC[C@]2(C)C(=O)O)C1=O` [Example 112, (1S,2R)-2-((S)-5-Chloro-8-((5-(difluoromethyl)-1-methyl-1H-1,2,3-triazol-4-yl)methoxy)-1-(((R)-3-methyl-2-oxopyrrolidin-1-yl)methyl)-1,2,3,4-tetrahydroisoquinoline-2-carbonyl)-1-methylcyclohexane-1-carboxylic acid]?
Answer: pIC50 [1]: 8.03; pEC50 [2]: 6.55

Question: What does the source list for `C[C@@H]1CCN(C[C@@H]2c3c(OCc4nnn(C)c4C(F)F)ccc(Cl)c3CCN2C(=O)[C@@H]2CCC[C@]2(C)C(=O)O)C1=O` [Example 113, (1S,2R)-2-((1S)-5-Chloro-8-((5-(difluoromethyl)-1-methyl-1H-1,2,3-triazol-4-yl)methoxy)-1-(((R)-3-methyl-2-oxopyrrolidin-1-yl)methyl)-1,2,3,4-tetrahydroisoquinoline-2-carbonyl)-1-methylcyclopentane-1-carboxylic acid]?
Answer: pIC50 [1]: 8.00; pEC50 [2]: 6.62

Question: How did the pIC50 [1] turn out when `C[C@H]1CCN(C[C@@H]2c3c(OCc4nnn(C)c4C(F)F)ccc(Cl)c3CCN2C(=O)[C@@H]2CCC[C@]2(C)C(=O)O)C1=O` [Example 114, (1S,2R)-2-((1S)-5-Chloro-8-((5-(difluoromethyl)-1-methyl-1H-1,2,3-triazol-4-yl)methoxy)-1-(((S)-3-methyl-2-oxopyrrolidin-1-yl)methyl)-1,2,3,4-tetrahydroisoquinoline-2-carbonyl)-1-methylcyclopentane-1-carboxylic acid] was run?
Answer: The pIC50 was 8.13.

Question: And the pEC50 [2]?
Answer: The pEC50 was 7.80.

Question: With `C[C@H]1CCN(C[C@@H]2c3c(OCc4nnn(C)c4C(F)F)ccc(Cl)c3CCN2C(=O)[C@@H]2CCCC[C@]2(C)C(=O)O)C1=O` [Example 115, (1S,2R)-2-((1S)-5-Chloro-8-((5-(difluoromethyl)-1-methyl-1H-1,2,3-triazol-4-yl)methoxy)-1-(((S)-3-methyl-2-oxopyrrolidin-1-yl)methyl)-1,2,3,4-tetrahydroisoquinoline-2-carbonyl)-1-methylcyclohexane-1-carboxylic acid] as the compound, how does the pIC50 [1] read?
Answer: The pIC50 was 8.01.

Question: What about the pEC50 [2] of the same compound?
Answer: The pEC50 was 8.38.

Question: Which results are given for `C[C@H]1CC(=O)N(C[C@@H]2c3c(OCc4nnn(C)c4C(F)F)ccc(Cl)c3CCN2C(=O)[C@@H]2CCC[C@]2(C)C(=O)O)C1` [Example 116, (1S,2R)-2-((S)-5-chloro-8-((5-(difluoromethyl)-1-methyl-1H-1,2,3-triazol-4-yl)methoxy)-1-(((S)-4-methyl-2-oxopyrrolidin-1-yl)methyl)-1,2,3,4-tetrahydroisoquinoline-2-carbonyl)-1-methylcyclopentane-1-carboxylic acid]?
Answer: pIC50 [1]: 7.14; pEC50 [2]: 5.72

Question: With `CC[C@]1(C(=O)O)CCCC[C@H]1C(=O)N1CCc2c(Cl)ccc(OCc3nnn(C)c3C(F)F)c2[C@H]1CN1CCCC1=O` [Example 117, (1S,2R)-2-((S)-5-chloro-8-((5-(difluoromethyl)-1-methyl-1H-1,2,3-triazol-4-yl)methoxy)-1-((2-oxopyrrolidin-1-yl)methyl)-1,2,3,4-tetrahydroisoquinoline-2-carbonyl)-1-ethylcyclohexane-1-carboxylic acid] as the compound, how does the pIC50 [1] read?
Answer: The pIC50 was 8.09.

Question: And the pEC50 [2]?
Answer: Its pEC50 is 7.43.

Question: How did the pIC50 [1] turn out when `CC[C@]1(C(=O)O)CCC[C@H]1C(=O)N1CCc2c(Cl)ccc(OCc3nnn(C)c3C(F)F)c2[C@H]1CN1CCCC1=O` [Example 118, (1S,2R)-2-((S)-5-chloro-8-((5-(difluoromethyl)-1-methyl-1H-1,2,3-triazol-4-yl)methoxy)-1-((2-oxopyrrolidin-1-yl)methyl)-1,2,3,4-tetrahydroisoquinoline-2-carbonyl)-1-ethylcyclopentane-1-carboxylic acid] was run?
Answer: The pIC50 was 8.08.

Question: And the pEC50 [2]?
Answer: Its pEC50 is 7.23.

Question: With `CCn1nnc(COc2ccc(Cl)c3c2[C@@H](CN2CCCC2=O)N(C(=O)[C@@H]2CCC[C@]2(C)C(=O)O)CC3)c1C(F)F` [Example 119, (1S,2R)-2-((S)-5-chloro-8-((5-(difluoromethyl)-1-ethyl-1H-1,2,3-triazol-4-yl)methoxy)-1-((2-oxopyrrolidin-1-yl)methyl)-1,2,3,4-tetrahydroisoquinoline-2-carbonyl)-1-methylcyclopentane-1-carboxylic acid] as the compound, how does the pIC50 [1] read?
Answer: Its pIC50 is 8.09.

Question: And the pEC50 [2]?
Answer: The pEC50 was 7.74.

Question: Which results are given for `CCn1nnc(COc2ccc(Cl)c3c2[C@@H](CN2CCCC2=O)N(C(=O)[C@@H]2CCCC[C@]2(C)C(=O)O)CC3)c1C(F)F` [Example 120, (1S,2R)-2-((S)-5-chloro-8-((5-(difluoromethyl)-1-ethyl-1H-1,2,3-triazol-4-yl)methoxy)-1-((2-oxopyrrolidin-1-yl)methyl)-1,2,3,4-tetrahydroisoquinoline-2-carbonyl)-1-methylcyclohexane-1-carboxylic acid]?
Answer: pIC50 [1]: 8.21; pEC50 [2]: 8.92

Question: What does the source list for `CC(C)n1nnc(COc2ccc(Cl)c3c2[C@@H](CN2CCCC2=O)N(C(=O)[C@@H]2CCCC[C@]2(C)C(=O)O)CC3)c1C(F)F` [Example 121, (1S,2R)-2-((S)-5-chloro-8-((5-(difluoromethyl)-1-isopropyl-1H-1,2,3-triazol-4-yl)methoxy)-1-((2-oxopyrrolidin-1-yl)methyl)-1,2,3,4-tetrahydroisoquinoline-2-carbonyl)-1-methylcyclohexane-1-carboxylic acid]?
Answer: pIC50 [1]: 8.20; pEC50 [2]: 7.96

Question: Which results are given for `CC(C)n1nnc(COc2ccc(Cl)c3c2[C@@H](CN2CCCC2=O)N(C(=O)[C@@H]2CCC[C@]2(C)C(=O)O)CC3)c1C(F)F` [Example 122, (1S,2R)-2-((S)-5-chloro-8-((5-(difluoromethyl)-1-isopropyl-1H-1,2,3-triazol-4-yl)methoxy)-1-((2-oxopyrrolidin-1-yl)methyl)-1,2,3,4-tetrahydroisoquinoline-2-carbonyl)-1-methylcyclopentane-1-carboxylic acid]?
Answer: pIC50 [1]: 8.01; pEC50 [2]: 7.07
